Key:
OATP2B1 = target: T1, OATP2B1 (Homo sapiens, UniProt O94956); format: cell-based
T1 sequence (O94956 1-709): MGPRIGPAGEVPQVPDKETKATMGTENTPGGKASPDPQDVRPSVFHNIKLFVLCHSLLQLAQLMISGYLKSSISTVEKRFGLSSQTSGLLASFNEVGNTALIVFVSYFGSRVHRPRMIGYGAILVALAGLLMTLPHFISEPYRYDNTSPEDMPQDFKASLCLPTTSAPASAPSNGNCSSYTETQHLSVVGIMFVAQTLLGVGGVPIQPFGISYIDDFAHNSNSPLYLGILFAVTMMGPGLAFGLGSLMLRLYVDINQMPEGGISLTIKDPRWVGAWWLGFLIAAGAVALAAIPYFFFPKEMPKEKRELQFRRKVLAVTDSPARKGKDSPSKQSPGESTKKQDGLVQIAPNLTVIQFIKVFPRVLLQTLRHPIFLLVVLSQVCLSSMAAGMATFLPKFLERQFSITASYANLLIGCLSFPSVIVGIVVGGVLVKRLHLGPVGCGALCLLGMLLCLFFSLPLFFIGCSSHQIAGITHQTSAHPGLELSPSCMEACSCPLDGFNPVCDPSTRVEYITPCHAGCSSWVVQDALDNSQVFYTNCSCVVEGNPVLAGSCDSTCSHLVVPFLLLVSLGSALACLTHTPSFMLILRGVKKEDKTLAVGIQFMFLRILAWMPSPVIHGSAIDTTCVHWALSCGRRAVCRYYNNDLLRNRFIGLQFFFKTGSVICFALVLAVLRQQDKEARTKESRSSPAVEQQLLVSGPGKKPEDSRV

OATP1B1 = target: T2, OATP1B1 (Homo sapiens, UniProt Q9Y6L6); format: cell-based; details: hek-oatp1b1 cells
T2 sequence (Q9Y6L6 1-691): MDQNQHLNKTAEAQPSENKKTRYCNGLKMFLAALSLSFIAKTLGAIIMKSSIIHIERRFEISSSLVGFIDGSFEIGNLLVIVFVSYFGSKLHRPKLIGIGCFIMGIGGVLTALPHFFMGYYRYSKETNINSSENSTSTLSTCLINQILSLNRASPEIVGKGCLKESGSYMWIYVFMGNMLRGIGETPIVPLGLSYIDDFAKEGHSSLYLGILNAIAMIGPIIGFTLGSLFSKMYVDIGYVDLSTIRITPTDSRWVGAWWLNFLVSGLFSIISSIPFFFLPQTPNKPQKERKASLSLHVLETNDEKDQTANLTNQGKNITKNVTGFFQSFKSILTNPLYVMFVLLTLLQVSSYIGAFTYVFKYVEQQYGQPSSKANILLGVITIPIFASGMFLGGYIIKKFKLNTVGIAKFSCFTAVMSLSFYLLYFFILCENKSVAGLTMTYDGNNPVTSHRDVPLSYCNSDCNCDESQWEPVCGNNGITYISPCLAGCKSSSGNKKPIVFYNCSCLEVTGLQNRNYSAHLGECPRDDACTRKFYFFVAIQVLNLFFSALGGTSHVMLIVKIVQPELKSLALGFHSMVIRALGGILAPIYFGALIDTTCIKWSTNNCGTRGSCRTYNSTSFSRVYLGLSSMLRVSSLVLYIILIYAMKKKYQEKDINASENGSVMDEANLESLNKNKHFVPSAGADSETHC

`N=C(N)Nc1ccc(C(=O)Oc2ccc(CC(=O)O)cc2)cc1` [GBPA, 4-(4-guanidinobenzoyloxy)phenylacetic acid] was tested, and the IC50 (OATP2B1) was 11.1 ± 3.3 µM and the inhibition at 100 µM (OATP1B1) was ~50%.

From paper PMC9748837 (Chemico-Biological Interactions, 2021)
